In patent US20100298430A1, “PROPHYLACTIC ANTISTRESS AGENT” (KAO CORPORATION, priority 2005, published 2010):

Legend:
fatigue rats [1] = assay: Weighted swimming test in water immersion central fatigue model rats, administration in drinking water; assay type: in vivo, SD rats; conditions: 0.25% (W/V) in drinking water (370 mg/kg/day), oral; 3 days water immersion; swim on the 4th day with weight 8% of body weight; vs distilled water control
Protocol: A test sample or distilled water used as a control was administered in the form of drinking water to SD rats (male, 6-week-old, n=3 to 6). Thereafter, the rats were bred for 3 days in a cage wherein the water depth had been set at 1.5 cm (23±1° C.) (1 rat/1 cage), so as to produce fatigue rats. It is to be noted that the water in such a cage was exchanged with fresh one every day. At the same time, rats, which had been bred on a common bedding, were defined as normal rats. After completion of the breeding for 3 days, a weight that was 8% of the body weight was attached to the tail portion of each rat on the 4th day, and the rat was then allowed to swim in water of 23° C. The time required until the nose was submerged in water for 10 or more seconds was measured, and the thus measured time was evaluated as a fatigue level caused by central fatigue (chronic fatigue). This model has been known as a central fatigue model (Non-Patent Document 1 and Neurosci. Lett. 352 (2003), 159-162). For the test group, 0.25% (W/V) chlorogenic acid (370 mg/kg/day) was used. For the control group, distilled water was used.

fatigue rats [2] = assay: Weighted swimming test in water immersion load fatigue rats (stress fatigue), intraperitoneal administration; assay type: in vivo, SD rats; conditions: CQA 300 mg/kg intraperitoneally once a day for 5 days; swim on the 6th day with weight 8% of body weight, water of 23° C.; vs normal saline control
Protocol: SD rats (male, 7-week-old, n=4 to 12) were bred for 5 days in a cage wherein the water depth had been set at 1.5 cm (23±1° C.) (1 rat/1 cage), so as to produce fatigue rats. It is to be noted that the water in such a cage was exchanged with fresh one every day. From the first day, a test sample or a normal saline solution used as a control was intraperitoneally administered to the rats once a day. At the same time, rats, which had been bred on a common bedding, were defined as normal rats, and from the first day, a normal saline solution was intraperitoneally administered to them once a day. After completion of the breeding for 5 days, a weight that was 8% of the body weight was attached to the tail portion of each rat on the 6th day, and the rat was then allowed to swim in water of 23° C. The time required until the nose was submerged in water for 10 or more seconds was measured, and the thus measured time was evaluated as a fatigue level caused by stress. For the test group, chlorogenic acid (CQA 300 mg/kg) was used. For the control group, a normal saline solution was used.

Compound: O=C(/C=C/c1ccc(O)c(O)c1)O[C@@H]1C[C@](O)(C(=O)O)C[C@@H](O)[C@H]1O [chlorogenic acid]
- fatigue level caused by central fatigue (chronic fatigue) (swimming time until the nose was submerged in water for 10 or more seconds) (fatigue rats [1]): attenuated
- fatigue level caused by stress (swimming time until the nose was submerged in water for 10 or more seconds) (fatigue rats [2]): attenuated
